Patent US20190008790A1, “A METHOD FOR THE PREPARATION OF A DELIVERY DRUG DELIVERY SYSTEM AND A COMPOSITION THEREFOR” (Element Six (UK) Limited, priority 2015, published 2019)
Values after ≈ are worked out from the molar mass of the structure shown.

Assays:
[1] = system: Fusobacterium nucleatum; test: IC50 test (half maximal inhibitory concentration) on gram-negative bacterium; format: cell-based; details: Triclosan ppm, percentage growth compared to positive control, 800 ppm stock
Source text: The effectiveness of the active pharmaceutical ingredient may be measured by means of its “half maximal inhibitory concentration”, also known as the “IC50” value.
The IC50 of a substance is a measure of the effectiveness of that substance in inhibiting a specific biological or biochemical function. The IC50 indicates how much of a particular drug or other substance (inhibitor) is needed to inhibit a given biological process (or component of a process, i.e. an enzyme, cell, cell receptor or microorganism) by half. It is commonly used as a measure of antagonist drug potency in pharmacological research. The IC50 of a drug can be determined by constructing a dose-response curve and examining the effect of different concentrations of antagonist on reversing agonist activity. IC50 values can be calculated for a given antagonist by determining the concentration needed to inhibit half of the maximum biological response of the agonist.
A sample of the Triclosan™/nano-diamond powder produced according to Example 5 was dispersed into deionized water to form an 800 ppm Triclosan™ dispersion (Solution 1).
Triclosan™ was dissolved into an ethanol/water mixture (50/50 in volume) to form an 800 ppm Triclosan™ solution (Solution 2). An IC50 test was conducted with Solution 2 on gram-negative bacteria (Fusobacterium nucleatum). […]

[2] = system: Staphylococcus aureus subsp. aureus MRSA252; test: Minimum Bactericidal Concentration Test (MBC), re-growth as percentage of positive control; format: cell-based; details: ciprofloxacin concentration, dilutions of 0.5 mg/ml stock, re-growth vs positive control, read-out: concentration at which activity against MRSA252 was maintained (MBC test)
Protocol: In this example, the efficacy of the product of Example 7 was tested against Comparative Example 7 using a Minimum Bactericidal Concentration Test (MBC) to compare the inhibitory.
A sample of the spray dried powder obtained from Example 7 was dispersed into deionised water to give a ciprofloxacin concentration of 0.5 mg/ml (“Solution A”). A dispersion having the same concentration of ciprofloxacin was prepared by dissolving ciprofloxacin into dimethyl sulfoxide (“Solution B”). A third sample (“Solution C”) consisting of a water saturated ciprofloxacin solution was prepared by dispersing powder obtained from Comparative Example 7.
All three solutions were diluted to various concentrations and were subject to Minimum Bactericidal Concentration Test (MBC) to compare the inhibitory activity via re-growth of Staphylococcus aureus subsp. aureus MRSA252 as percentage of positive control. […] Solution B (DMSO/ciprofloxacin organic solution) maintained activity against MRSA252 at 62.5 mg/L (see FIG. 4(b)).

| SMILES | IC50 [1] | IC50 ([1]; listed as Triclosan™ in a 50:50 by volume water/ethanol solution) | MBC [2] |
| --- | --- | --- | --- |
| Oc1cc(Cl)ccc1Oc1ccc(Cl)cc1Cl [Solution 2, 5-chloro-2-(2,4-dichloro-phenoxy)-phenol] | around 56 ppm | ~56 ppm |  |
| O=C(O)c1cn(C2CC2)c2cc(N3CCNCC3)c(F)cc2c1=O [Solution B, ciprofloxacin] |  |  | 62.5 µg/mL (≈ 189 µM) |
